# US9421188B2, “Combination product comprising phentermine and topiramate, and preparation method thereof” (Institute of Pharmacology and Toxicology Academy of …, priority 2012, dated 2016)
# What was measured:
# [1] = cited from earlier work
# human plasma protein = settings: plasma concentration range of 0.5-250 μm/ml; decreases with increase of plasma concentration; cited from earlier work
# [2] = cited from earlier work; remark: listed apart in the source
# [3] = Effects of different dissolution media on release rate of sustained-release pellet of topiramate; type: physicochemical; settings: artificial gastric fluid with pH of 1.2; degradation reaction
# Experimental: In order to verify whether acidic, basic solvent media would influence the release rate of the sustained-release pellets of the present invention, 0.1 mol/L HCl (pH1.2) was prepared as artificial gastric fluid, […] phosphate buffer (pH6.8) was prepared as artificial intestinal fluid, and these media and water (500 ml) were used as release media separately, and rotation speed was 100 rpm, 37° C. 5 ml of Samples (supplemented with equivalent volume of media at the meantime) were separately taken at 1, 2, 4, 8, 12, 16, 20, 24 h, filtrated, and the subsequent filtrates were used as test solutions. High performance liquid chromatography (Appendix V D, Part II, Chinese Pharmacopoeia, 2010 Edition) was used, octylsilane-bonded silica gel was used as packing agent, 50% methanol was mobile phase, differential refractive detector was used, and flow rate was 1.5 ml per minute. 200 μl of test solution was taken and injected in liquid chromatography, and the peak area of topiramate as main drug was recorded; moreover, topiramate was taken as reference material and measured by the same method, and accumulative release percentages of drug at different time points were calculated by external standard method. The release profile of sample of Batch 1 in Example 6 (2) in the above mentioned media were drawn, and the results were shown in FIG. 2.
smiles,measurement,setting,value
"CC1(C)O[C@@H]2[C@@H](CO[C@@]3(COS(N)(=O)=O)OC(C)(C)O[C@@H]23)O1 [Topiramate, 2,3,4,5-bis-O-(1-methylethylidene)-β-D-fructopyranose sulfamate]",Solubility in organic solvents,"[1]; acetone, chloroform, dimethylsulfoxide and ethanol",freely soluble
same,Solubility in alkaline solution,"[1]; pH of 9-10, sodium hydroxide or sodium phosphate solutions",very freely soluble
same,Human plasma protein binding ratio,human plasma protein,15-41%
same,Plasma half-life,"[2]; human, in vivo",19 to 25 h
same,Clearance for oral administration,[2]; oral administration,22 to 36 mL/min
same,Stability of topiramate in artificial gastric fluid,[3],unstable
